Values quoted from earlier work in patent publication US5209933A, “Long acting calcium channel blocker composition” (Syntex (U.S.A.) Inc., priority 1991, dated 1993).
Like-named read-outs stand apart in the source and are kept apart here.

How the values were obtained:
calcium channel = conditions: result in words
[1] = result in words
[2] = result in words; remark: listed apart in the source

| Molecule | calcium channel blocking activity (calcium channel) | also measured |
| --- | --- | --- |
| 4-(3'-nitrophenyl)-2,6-dimethyl-1,4-dihydropyridine-3,5-dicarboxylic acid 3-methyl ester 5-(2-methoxyethyl)ester [nimodipine] | high degree of calcium channel blocking activity | – |
| CCOC(=O)C1=C(C)NC(C)=C(C(=O)OCC)C1c1ccccc1C(F)F [2,6-dimethyl-3,5-diethoxycarbonyl-4-(o-difluoromethylphenyl)-1,4-dichydropyridine] | high degree of calcium channel blocking activity | – |
| CCOC(=O)C1=C(C)NC(C)=C(C(=O)OC)C1c1cccc(Cl)c1Cl (stereo not drawn) [felodipine, 4-(2',3'-dichloro)-2,6-dimethyl-1,4-dihydropyridine-3,5-dicarboxylic acid 3-ethyl ester 5-methyl ester] | high degree of calcium channel blocking activity | – |
| COC(=O)C1=C(C)NC(C)=C(C(=O)OC(C)C)C1c1cccc([N+](=O)[O-])c1 (stereo not drawn) [isopropyl methyl 1,4-dihydro-2,6-dimethyl 4-(3-nitrophenyl)-3,5-pyridine dicarboxylate] | high degree of calcium channel blocking activity | – |
| COC(=O)C1=C(C)NC(C)=C(C(=O)OCCN(C)Cc2ccccc2)C1c1cccc([N+](=O)[O-])c1 (stereo not drawn) [nicardipine, 2,6-dimethyl-4-(3'-nitrophenyl)-1,4-dihydropyridine-3,5-dicarboxylic acid-3-β-(N-benzyl-N-methylamino)-ethyl ester 5-methyl ester] | high degree of calcium channel blocking activity | anti-ischemic properties [1]: possesses anti-ischemic properties; first pass metabolism [2]: extensive first pass metabolism |
| COC(=O)C1=C(C)NC(C)=C(C(=O)OC)C1c1ccccc1[N+](=O)[O-] [nifedipine, 4-(2'-nitrophenyl)-2,6-dimethyl-1,4-dihydropyridine-3,5-dicarboxylic acid dimethyl ester] | high degree of calcium channel blocking activity | calcium channel blocking activity (calcium channel; listed as 4-(2'-nitrophenyl)-2,6-dimethyl-1,4-dihydropyridine-3,5-dicarboxylic acid dimeth): shows calcium channel blocking activity |
| CCCOCCOC(=O)C1=C(C)NC(C)=C(C(=O)OCCOCCC)C1c1cccc([N+](=O)[O-])c1 [niludipine, 4-(3'-nitrophenyl)-2,6-dimethyl-1,4-dihydropyridine-3,5-dicarboxylic acid di-n-propyloxethyl ester] | high degree of calcium channel blocking activity | – |
| COC(=O)C1=C(C)NC(C)=C(C(=O)OCC(C)C)C1c1ccccc1[N+](=O)[O-] (stereo not drawn) [nisoldipine, 4-(2'-nitrophenyl)-2,6-dimethyl-1,4-dihydropyridine-3,5-dicarboxylic acid 3-methyl ester 5-isobutyl ester] | high degree of calcium channel blocking activity | – |
| CCOC(=O)C1=C(C)NC(C)=C(C(=O)OC)C1c1cccc([N+](=O)[O-])c1 (stereo not drawn) [nitrendipine, 4-(3'-nitrophenyl)-2,6-dimethyl-1,4-dihydropyridine-3,5-dicarboxylic acid 3-ethyl ester 5-methyl ester] | high degree of calcium channel blocking activity | – |
